From US8080579B2, “Compositions and methods for treatment of inflammatory bowel disease” (The Regents of The University of Michigan, priority 2005, dated 2011)

Experiments:
[1] = system: angiotensin converting enzyme (ACE); test: IEL ACE mRNA by real time PCR, short bowel syndrome model; type: in vivo, mice; settings: enalaprilat 0.6 mg/kg/day i.p., 7 days
Protocol: (§1) Short Bowel Syndrome Model: A 70% mid-small bowel resection was performed (i.e. bowel between 3.5 cm distal to the ligament of Treitz and 3.5 cm proximal to the ileocecal valve), followed by an end-to-end jejuno-ileal anastomosis with 7-0 monofilament, absorbable suture. Postoperatively a subcutaneous bolus of 3 ml 0.9% saline solution was given to maintain hydration status.
(§2) Sham operation: Mid-small bowel was transsected and re-anastomosed without bowel-resection.
IEL purification: Isolation of purified IEL from EC was performed by direct magnetic separation. Magnetic beads conjugated with antibody to CD45 (pan-lymphoid marker) were used to segregate IEL from EC (BioMag SelectaPure Anti-Mouse CD 45R Antibody Particles, Polyscience Inc., Warrington, Pa.). Magnetic separation was performed twice to further deplete EC. […]
Real time PCR: Real-time PCR was run to better quantify actual changes in ACE expression. cDNA was also used for real time PCR. The same primers for ACE and β-actin were used as for conventional PCR, SYBR Green I was utilized for fluorescence. […] Ct-values of ACE and β-actin were converted to numbers of cDNA copies, and results expressed as the ratio of ACE over β-actin expression.
(§3) To further understand the relevance of ACE expression on EC apoptosis, ACE-inhibition was used. […] After 1 week, mice were killed, EC apoptotic rates assessed, and IEL mRNA and protein isolated.

[2] = system: angiotensin converting enzyme (ACE); test: IEL ACE protein by immunoblot, short bowel syndrome model; type: in vivo, mice; settings: enalaprilat 0.6 mg/kg/day i.p., 7 days
Protocol: as §1, §2
(§4) IEL purification: Isolation of purified IEL from EC was performed by direct magnetic separation. Magnetic beads conjugated with antibody to CD45 (pan-lymphoid marker) were used to segregate IEL from EC (BioMag SelectaPure Anti-Mouse CD 45R Antibody Particles, Polyscience Inc., Warrington, Pa.). […]
Immunoblot analysis: Protein was extracted from isolated IEL and immunoblots performed by using a Bio-Rad protein assay kit (Bio-Rad Laboratories, Hercules, Calif.), with standard methods. […] Expression for β-actin was determined in the same fashion by re-probing membranes with purified anti-mouse β-actin (1:12000, Sigma-Aldrich, St. Louis, Mo.). Results are expressed as the ratio of ACE over β-actin protein expression.
as §3

[3] = system: intestinal epithelial cells; test: Epithelial cell proliferation (BrdU), short bowel syndrome model; type: in vivo, mice; settings: FIG. 11
Protocol: Epithelial cell proliferation: Mice were given a dose of bromodeoxyuridine (BrdU) 1 to 2 hours prior to sacrifice. Tissues harvested from the intestine were subsequently stained for BrdU as a marker of cellular proliferation.

TNF-α = test: IEL TNF-α mRNA by RT-PCR, short bowel syndrome model; type: in vivo; settings: Sham operated mice, enalaprilat 0.6 mg/kg/day i.p., 7 days
Protocol: as §1, §2, §4
Reverse transcriptase polymerase chain reaction (RT-PCR): mRNA (poly-A positive) was reversed transcribed into cDNA following a standard protocol. […] Gel bands were analyzed by DNA sequencing to ensure the correct product. Kodak EDAS System (Rochester, N.Y.) was used for imaging and quantification. Results were expressed as the ratio of the investigated mRNA over the β-actin mRNA expression.
as §3

C[C@H](N[C@@H](CCc1ccccc1)C(=O)O)C(=O)N1CCC[C@H]1C(=O)O [ACE-I, enalaprilat]
IEL ACE mRNA (ratio of ACE-cDNA copies over β-actin-cDNA copies) ([1]; SBS mice): 0.63 ± 0.25 | IEL ACE mRNA (ratio of ACE-cDNA copies over β-actin-cDNA copies) ([1]; Sham operated mice): 0.66 ± 0.22 | IEL ACE protein (ratio of ACE over β-actin protein expression) ([2]; SBS mice): 0.14 ± 0.03 | IEL ACE protein (ratio of ACE over β-actin protein expression) ([2]; Sham operated mice): 0.13 ± 0.01 | Epithelial cell proliferation [3]: increase significantly | IEL TNF-α mRNA (ratio over β-actin mRNA) (TNF-α): 0.37 ± 0.07
